Data on twelve compounds can be found in patent US9561228B2 (Celgene Avilomics Research, Inc., priority 2013, dated 2017).

Assay [1] has as its system ERK1/2 phosphorylation of p90RSK in HCT116 cells. As to the kind of experiment: Detection of total and phospho-RSK by MSD ELISA (HCT116). Type of assay: cell-based. The conditions noted are these: Homo sapiens, HCT-116, read-out: ERK1/ERK2 PRSK HCT116 EC50. The method in brief: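 ERK1/2 activity read in cells as p90RSK phosphorylation: lysates from HCT116 cells given compound for 2 h at 37° C were captured on MSD plates. Detection used a pSer380 RSK or a total RSK antibody with SulfoTag secondaries.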
(In general: ELISA stands for enzyme-linked immunosorbent assay.)

Assay [2] relates to ERK1/2 phosphorylation of p90RSK in A375 cells. As to the kind of experiment: Detection of total and phosphor-RSK by MSD ELISA (A375). The conditions noted are these: Homo sapiens, A-375, read-out: ERK1/ERK2 PRSK A375 EC50. Type of assay: cell-based. Summed up:
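Electrochemiluminescent MSD ELISA: common RSK capture antibody, with pRSK Ser380 or total RSK detection antibodies plus SulfoTag secondaries. Samples were lysates of A375 cells exposed to compound for 2 h at 37° C after overnight culture in 0.1% FBS DMEM.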

Regarding `C=CC(=O)Nc1cc(C)ccc1Nc1nc(Nc2cc(OC)nc(N3CCN(C(C)=O)CC3)c2)ncc1Cl` [Compound I-296, N-(2-((2-((2-(4-acetylpiperazin-1-yl)-6-methoxypyridin-4-yl)amino)-5-chloropyrimidin-4-yl)amino)-5-methylphenyl)acrylamide], the EC50 in assay [1] and in assay [2] was less than 100 nM throughout.
For the compound `C=CC(=O)Nc1cc(C(F)(F)F)ccc1Nc1nc(Nc2cc(OC)ncc2C)ncc1C(F)(F)F` [Compound I-323, N-(2-((2-((2-methoxy-5-methylpyridin-4-yl)amino)-5-(trifluoromethyl)pyrimidin-4-yl)amino)-5-(trifluoromethyl)phenyl)acrylamide], the EC50 in assay [1] was 101 to 500 nM; in assay [2], less than 100 nM.
`C=CC(=O)Nc1ccccc1Nc1nc(Nc2ccnnc2)ncc1C(F)(F)F` [Compound I-293, N-(2-((2-(Pyridazin-4-ylamino)-5-(trifluoromethyl)pyrimidin-4-yl)amino)phenyl)acrylamide]: the EC50 is less than 100 nM in assay [1] and 501 to 999 nM in assay [2].
`C=CC(=O)Nc1cc(OC)ccc1Nc1nc(Nc2cc(OC)ncc2C)ncc1C(F)(F)F` [Compound I-284, N-(5-Methoxy-2-((2-((2-methoxy-5-methylpyridin-4-yl)amino)-5-(trifluoromethyl)pyrimidin-4-yl)amino)phenyl)acrylamide]: the EC50 in assay [1] and in assay [2] was less than 100 nM throughout.
With `C=CC(=O)Nc1cc(F)ccc1Nc1nc(Nc2cc(OC)ncc2C)ncc1C(F)(F)F` [Compound I-322, N-(5-fluoro-2-((2-((2-methoxy-5-methylpyridin-4-yl)amino)-5-(trifluoromethyl)pyrimidin-4-yl)amino)phenyl)acrylamide], the EC50 was 101 to 500 nM in assay [1] and less than 100 nM in assay [2].
With `C=CC(=O)Nc1cc(OC)ccc1Nc1nc(Nc2cc(OC)nc(N3CCN(C(C)=O)CC3)c2)ncc1C(F)(F)F` [Compound I-91, N-(2-((2-((2-(4-Acetylpiperazin-1-yl)-6-methoxypyridin-4-yl)amino)-5-(trifluoromethyl)pyrimidin-4-yl)amino)-5-methoxyphenyl)acrylamide], the EC50 in assay [1] and in assay [2] was less than 100 nM each time.
Take `C=CC(=O)Nc1ccccc1Nc1nc(Nc2cc(OC)nc(N3CCN(C)CC3)c2)ncc1C(F)(F)F` [Compound I-324, N-(2-((2-((2-methoxy-6-(4-methylpiperazin-1-yl)pyridin-4-yl)amino)-5-(trifluoromethyl)pyrimidin-4-yl)amino)phenyl)acrylamide]: the EC50 in assay [1] was less than 100 nM; in assay [2], 101 to 500 nM.
Regarding `C=CC(=O)Nc1ccccc1Nc1nc(Nc2cc(N[C@H]3CC[C@@H](O)CC3)nc(OC)c2)ncc1C(F)(F)F` [Compound I-292], the EC50 in assay [1] and in assay [2] was less than 100 nM throughout.
With `C=CC(=O)Nc1cc(C)ccc1Nc1nc(Nc2cc(OC)cc(OC)c2)ncc1C(F)(F)F` [Compound I-339, N-(2-((2-((3,5-dimethoxyphenyl)amino)-5-(trifluoromethyl)pyrimidin-4-yl)amino)-5-methylphenyl)acrylamide], the figures for the EC50 in assay [1] and in assay [2] were 101 to 500 nM and 501 to 999 nM, respectively.
For the compound `C=CC(=O)Nc1cc(C)ccc1Nc1nc(Nc2cc(OC)nc(N3CCN(C)CC3)c2)ncc1C(F)(F)F` [Compound I-325, N-(2-((2-((2-methoxy-6-(4-methylpiperazin-1-yl)pyridin-4-yl)amino)-5-(trifluoromethyl)pyrimidin-4-yl)amino)-5-methylphenyl)acrylamide], the values for the EC50 in assay [1] and in assay [2] were less than 100 nM and 101 to 500 nM, respectively.
With `C=CC(=O)Nc1ccccc1Nc1nc(Nc2ccnc(F)c2)ncc1C(F)(F)F` [Compound I-287, N-(2-((2-((2-Fluoropyridin-4-yl)amino)-5-(trifluoromethyl)pyrimidin-4-yl)amino)phenyl)acrylamide], the EC50 was 101 to 500 nM in assay [1] and less than 100 nM in assay [2].
Regarding `C=CC(=O)Nc1cc(C)ccc1Nc1nc(Nc2ccnc(F)c2)ncc1C(F)(F)F` [Compound I-288, N-(2-((2-((2-Fluoropyridin-4-yl)amino)-5-(trifluoromethyl)pyrimidin-4-yl)amino)-5-methylphenyl)acrylamide], the EC50 in assay [1] and in assay [2] was 101 to 500 nM each time.
